The target in experiment [1] is T1, human DP2 receptor (Homo sapiens, UniProt Q9Y5Y4).
T1 construct: expressed in transfected cells; host or cells: CHO-K1 FLP-In (Invitrogen, catalog no. R758-07), stably transfected
T1 sequence (Q9Y5Y4 1-395): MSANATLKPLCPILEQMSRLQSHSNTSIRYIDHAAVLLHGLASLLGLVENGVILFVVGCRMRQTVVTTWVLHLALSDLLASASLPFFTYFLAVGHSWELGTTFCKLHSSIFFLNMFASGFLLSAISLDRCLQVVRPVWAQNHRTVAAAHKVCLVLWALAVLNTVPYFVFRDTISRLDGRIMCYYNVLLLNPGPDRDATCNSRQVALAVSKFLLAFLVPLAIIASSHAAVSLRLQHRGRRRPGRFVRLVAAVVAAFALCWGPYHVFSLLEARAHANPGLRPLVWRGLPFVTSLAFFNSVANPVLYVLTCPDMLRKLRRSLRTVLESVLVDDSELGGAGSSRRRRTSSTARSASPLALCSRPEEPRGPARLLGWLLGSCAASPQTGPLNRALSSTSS
The experiment can be described thus: Prostaglandin D2 binding inhibition assay (scintillation proximity assay, 3H PGD2, membranes of transfected CHO cells). The conditions noted are these: SPA, 5.5 nM 3H PGD2, CHO-K1 FLP-In human DP2 membranes; upper limit determinable 30 μM; read-out: IC50 ranges for inhibition of PGD2 binding to human DP2. The essentials:
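Membranes (5 μg) from CHO-K1 cells stably expressing human DP2 were mixed with WGA SPA beads and 5.5 nM 3H PGD2 in Tris buffer with 10 mM MgCl2, 100 mM NaCl, 0.1% BSA, plus compound. After 60 min at room temperature, CPM were read; IC50 from two-parameter nonlinear regression.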

Experiment [2] addresses T1, human DP2 receptor. The experiment can be described thus: Measurement of inhibition of intracellular cAMP induction (LANCE cAMP TR-FRET). Type of experiment: cell-based. The conditions noted are these: human DP2 cells. Here is the method: The ability of compounds to act as antagonists or agonists at the human DP2 receptor was determined by measuring changes in intracellular cAMP levels using a LANCE cAMP detection kit (PerkinElmer, catalog no. AD0264) utilizing time-resolved fluorescence resonance energy transfer (TR-FRET).
Human DP2 cells were grown as described above. Cells were diluted to 2×10^5 cells/mL, and pre-incubated with 0.5 mM […] or IBMX (Sigma, catalog no. I7018). Antibody was added to all the cells as per the manufacturer's instructions. For antagonist experiments, cells were then pre-stimulated for 15 minutes with 4 μM of the water soluble forskolin derivative NKH-477 (Tocris, catalog no. 1603) to increase intracellular cAMP levels. An aliquot of cells was removed for use in uninduced controls. […] After a three hour equilibration, plates were read on an Envision multi-mode detector (PerkinElmer). TR-FRET was measured using a 330-380 nm excitation filter, 615 and 665 nm emission filters, and a 380 nm dichroic mirror set at a Z-height of 11 mm.
The cAMP concentration in each well was back-calculated from a cAMP standard curve run concurrently with each assay. Cyclic AMP responses were expressed as a percent of the difference between the maximum and minimum responses, determined from the induced and uninduced controls, respectively. […]

Take `CS(=O)(=O)c1ccccc1S(=O)(=O)N1CCC(n2c(=O)n(CC(=O)O)c3cccnc32)CC1` [Compound 63, 2-(3-(1-(2-(methylsulfonyl)phenyl-sulfonyl)piperidin-4-yl)-2-oxo-2,3-dihydro-1H-imidazo[4,5-b]pyridin-1-yl)acetic acid]: at human DP2 receptor [1], the concentration for half-maximal inhibition (IC50) was below 1 µM. The 50% effective concentration (EC50) on human DP2 receptor [2] (4 μM NKH-477 pre-stimulation, 30 nM PGD2, read-out: EC50, antagonism of intracellular cAMP induction) was below 1 µM. In addition, the “mode of action at human DP2 (antagonist or agonist)” value at human DP2 receptor [2] (intracellular cAMP) was “antagonist”.

As to `Cc1cnc2c(c1)n(CC(=O)O)c(=O)n2C1CCN(S(=O)(=O)c2ccc(F)cc2C)CC1` [Compound 125, 2-(3-(1-(4-fluoro-2-methylphenylsulfonyl)piperidin-4-yl)-6-methyl-2-oxo-2,3-dihydro-1H-imidazo[4,5-b]pyridin-1-yl)acetic acid], at human DP2 receptor [1], the IC50 lay in the range of 10 to 30 µM.

For the compound `Cc1cnc2c(c1)n(CC(=O)O)c(=O)n2C1CCN(S(=O)(=O)c2ccc(F)cc2Cl)CC1` [Compound 126, 2-(3-(1-(2-chloro-4-fluorophenylsulfonyl)piperidin-4-yl)-6-methyl-2-oxo-2,3-dihydro-1H-imidazo[4,5-b]pyridin-1-yl)acetic acid], the IC50 on human DP2 receptor [1] is 10 to 30 µM.

`Cc1cnc2c(c1)n(CC(=O)O)c(=O)n2C1CCN(S(=O)(=O)c2ccccc2Cl)CC1` [Compound 127, 2-(3-(1-(2-chlorophenylsulfonyl)piperidin-4-yl)-6-methyl-2-oxo-2,3-dihydro-1H-imidazo[4,5-b]pyridin-1-yl)acetic acid]: the IC50 on human DP2 receptor [1] is 1 to 10 µM.

For the compound `O=C(O)Cn1c(=O)n(C2CCN(S(=O)(=O)c3ccc(F)cc3Cl)CC2)c2cccnc21` [Compound 132, 2-(1-(1-(2-chloro-4-fluorophenylsulfonyl)piperidin-4-yl)-2-oxo-1H-imidazo[4,5-b]pyridin-3(2H)-yl)acetic acid], the IC50 on human DP2 receptor [1] is above 30 µM.

For `O=C(O)Cn1c(=O)n(C2CCN(S(=O)(=O)c3ccccc3Cl)CC2)c2cccnc21` [Compound 133, 2-(1-(1-(2-chlorophenylsulfonyl)piperidin-4-yl)-2-oxo-1H-imidazo[4,5-b]pyridin-3(2H)-yl)acetic acid], at human DP2 receptor [1], the IC50 was above 30 µM.

Take `O=C(O)Cn1c(=O)n(C2CCN(S(=O)(=O)c3ccc(Cl)cc3Cl)CC2)c2cccnc21` [Compound 134, 2-(1-(1-(2,4-dichlorophenylsulfonyl)piperidin-4-yl)-2-oxo-1H-imidazo[4,5-b]pyridin-3(2H)-yl)acetic acid]: the IC50 on human DP2 receptor [1] was above 30 µM.

As to `CS(=O)(=O)c1ccccc1S(=O)(=O)N1CCC(n2c(=O)n(CC(=O)O)c3ncccc32)CC1` [Compound 135, 2-(1-(1-(2-(methylsulfonyl)phenyl-sulfonyl)piperidin-4-yl)-2-oxo-1H-imidazo[4,5-b]pyridin-3(2H)-yl)acetic acid], at human DP2 receptor [1], the IC50 is above 30 µM.

With `O=C(O)Cn1c(=O)n(C2CCN(S(=O)(=O)c3ccc(F)cc3Cl)CC2)c2ccncc21` [Compound 140, 2-(1-(1-(2-chloro-4-fluorophenylsulfonyl)piperidin-4-yl)-2-oxo-1H-imidazo[4,5-c]pyridin-3(2H)-yl)acetic acid], the IC50 at human DP2 receptor [1] was above 30 µM.

On to `O=C(O)Cn1c(=O)n(C2CCN(S(=O)(=O)c3ccccc3Cl)CC2)c2ccncc21` [Compound 141, 2-(1-(1-(2-chlorophenylsulfonyl)piperidin-4-yl)-2-oxo-1H-imidazo[4,5-c]pyridin-3(2H)-yl)acetic acid], for which, on human DP2 receptor [1], the IC50 is above 30 µM.

For `O=C(O)Cn1c(=O)n(C2CCN(S(=O)(=O)c3ccc(Cl)cc3Cl)CC2)c2ccncc21` [Compound 142, 2-(1-(1-(2,4-dichlorophenylsulfonyl)piperidin-4-yl)-2-oxo-1H-imidazo[4,5-c]pyridin-3(2H)-yl)acetic acid], on human DP2 receptor [1], the IC50 is above 30 µM.

Turning to `CS(=O)(=O)c1ccccc1S(=O)(=O)N1CCC(n2c(=O)n(CC(=O)O)c3cnccc32)CC1` [Compound 143, 2-(1-(1-(2-(methylsulfonyl)phenylsulfonyl)piperidin-4-yl)-2-oxo-1H-imidazo[4,5-c]pyridin-3(2H)-yl)acetic acid], the half-maximal inhibitory concentration (IC50) on human DP2 receptor [1] is above 30 µM.

Turning to `Cc1cc(F)ccc1S(=O)(=O)N1CCC(n2c(=O)n(CC(=O)O)c3cnccc32)CC1` [Compound 144, 2-(1-(1-(4-fluoro-2-methylphenylsulfonyl)piperidin-4-yl)-2-oxo-1H-imidazo[4,5-c]pyridin-3(2H)-yl)acetic acid], the IC50 at human DP2 receptor [1] is above 30 µM.

Take `CS(=O)(=O)c1ccccc1S(=O)(=O)N1CCC(n2c(=O)n(CC(=O)O)c3ccncc32)CC1` [Compound 149, 2-(3-(1-(2-(methylsulfonyl)phenylsulfonyl)piperidin-4-yl)-2-oxo-2,3-dihydro-1H-imidazo[4,5-c]pyridin-1-yl)acetic acid]: on human DP2 receptor [1], the IC50 was in the range of 1 to 10 µM.

As to `O=C(O)Cn1c(=O)n(C2CCN(S(=O)(=O)c3ccc(F)cc3Cl)CC2)c2cnccc21` [Compound 150, 2-(3-(1-(2-chloro-4-fluorophenylsulfonyl)piperidin-4-yl)-2-oxo-2,3-dihydro-1H-imidazo[4,5-c]pyridin-1-yl)acetic acid], the IC50 at human DP2 receptor [1] was above 30 µM.

The record behind these values is patent US20110190336A1, “AZABENZIMIDAZOLONES” (CARA THERAPEUTICS, INC., priority 2008, published 2011).
